Results on 90 compounds are retold here after a melting point compilation (Tetko et al.; mined from patent text by program, amines drawn as free bases though some values may be those of a salt).

Bounds are passed on as bounds.

Regarding `O=S(=O)(c1cccs1)N(c1cccc2cc(C3=NCC(CN4CCOCC4)S3)[nH]c12)C(F)F` (stereo not given), the melting point fell in the range of 185 to 186 °C.
The compound `CC(=NO)c1ccc(OCC(O)(Cn2cncn2)C(C)(C)C)cc1` (stereo not given) registered a melting point of 129 to 132 °C.
In turn, `Cc1oc(-c2ccccc2)nc1COc1ccc(Cn2cc(CCC(=O)O)c(-c3cccs3)n2)cc1` showed a melting point of 172 to 173 °C.
Under `C=CCOc1cccc2c1C(=O)N(C(C)(C#N)C(C)C)C2=O` (stereo not given) stands 54 to 58 °C; under `CN(C)Cc1nnc2n1-c1sc(Cl)cc1C(c1ccccc1[N+](=O)[O-])=NC2`, 234 to 236 °C.
The result for `O=C(O)c1ccc2c(c1)Sc1ccc(F)cc1C=C2` reads 273 to 275 °C; that for `COc1c(C)c(C(=O)c2ccc3nc(C)oc(=O)c3c2)n2ccccc12`, 218 °C.
The result for `Cc1c(C)c2c(c(C)c1N)C(c1ccccc1)C(C)(C)O2` (stereo not given) reads 131 to 132 °C.
Turning to `Cc1c(Cl)ccc(S(C)(=O)=O)c1Cl`, the melting point was 125 to 127 °C.
Under `CCc1nnc(SCC2=C(C(=O)O)N3C(=O)C(NC(=O)Cc4csc(=O)s4)C3SC2)s1` (stereo not given) stands 155 °C.
In turn, `CSc1cc(SC)c(N)c(SC)c1N` returned a melting point of 114 to 116 °C.
The result for `CC(Cc1ccc(C(=O)c2ccc(Cl)cc2)cc1)S(=O)(=O)C(F)(F)F` (stereo not given) reads 107 to 109 °C.
Under `Cc1cc(OCCc2nc(-c3ccccc3)oc2C)ccc1OCC(=O)O` stands 133 °C; under `CCN1C(=O)c2cnc(-c3ccccc3)nc2N(C(=O)CN(C(C)C)C(C)C)c2ccccc21`, 120 to 121 °C.
Turning to `CCOP(=O)(Cc1ccc2ccccc2c1O)OCC`, the melting point was in the range of 90.1 to 91.3 °C.
The compound `O=C(N[C@H]1CCCNC1=O)c1cccc(F)c1` displayed a melting point of 164 to 166 °C.
In the case of `CS(=O)(=O)c1ccc(-c2cnn(-c3ccc(F)cc3)c(=O)c2OCC2CC2)cc1`, the melting point was 166 to 167 °C.
The result for `CN(C)c1ccc(-c2noc([C@H]3CCCN(C(=O)c4ccc(F)cc4)C3)n2)cc1` reads 147 to 153 °C; that for `CON(C)C(=O)c1cc2c(s1)CCCC2`, 36 to 37 °C; that for `Cc1ccc(S(=O)(=O)N2CCCCC2)cc1`, 148 to 150 °C.
On to `COc1c(Cl)ccc(-c2cc(N)c(Cl)c(C(=O)NOC/C=C/Cl)n2)c1F`, for which the melting point was 163 to 165 °C.
Under `COc1ccc(CN2C(=O)C3(COc4cc(F)c(C#N)cc43)c3ccccc32)cc1` (stereo not given) stands 142 to 143 °C; under `CCCNc1nc(C#N)c(C#N)nc1CC(C)C`, 107 to 110 °C.
Under `O=C(Nc1ccc(OCCN2CCOCC2)c2ccccc12)c1cccc(N2CCCCC2)c1` stands 147 to 148 °C; under `CCOC(=O)c1ccc(NC(C)c2ccccc2)cc1` (stereo not given), 88 °C.
As for `CNC(=O)CCn1cnc2c(N)nc3ccccc3c21`, the melting point was > 260 °C.
With `O=C1CCc2ccc(OCCCCN3CCN(c4cccc5cc(Cl)ccc45)CC3)nc2N1`, the melting point was 215 to 216 °C.
In turn, `COC(=O)c1nccnc1NS(=O)(=O)c1cccc(Cl)c1Cl` returned a melting point of 177 to 178 °C.
The compound `CSc1cc(N)nc(C(N)=O)c1` came in with a melting point of 158 to 159 °C.
The result for `O=Cc1cc2cc3c(cc2nc1I)OCCO3` reads 155 to 157 °C; that for `Cc1ccc(S(=O)(=O)OCC2CCC=CO2)cc1` (stereo not given), 45 to 46 °C; that for `COCCc1nc2c(N)nc3ccccc3c2n1CCOc1ccccc1`, 171 to 174 °C.
Under `Cn1c(=O)c2c(Cl)cc(Cl)cc2n(Cc2ccccc2)c1=O` stands 166 to 169 °C; under `CCOCc1nc(C(C)(C)O)c(C(=O)OCOC(=O)C(C)(C)C)n1Cc1ccc(-c2ccccc2-c2nnn[nH]2)cc1`, 56 to 61 °C; under `C=CCCCCCCOc1ccc(CCC(N)(CO)CO)cc1`, 95 to 98 °C.
Under `O=C(CCCC1CCCCC1)N[C@H]1CO[C@H]2[C@@H]1OC[C@@H]2NC(=O)C1CC1` stands 182 °C.
With `CS(=O)(=O)Nc1cc2occ(S(C)(=O)=O)c(=O)c2cc1Oc1ccccc1`, the melting point is > 250 °C.
The result for `CS(=O)(=O)OCCCc1cccc(OCc2coc(/C=C/c3ccccc3)n2)c1` reads 75 to 76 °C; that for `Nc1ccc(I)cc1C=O`, 105 °C.
Under `O=C(NC1CCN(CCCOc2ccccc2C(=O)Nc2nnn[nH]2)CC1)c1ccccc1` stands 259 to 260 °C; under `CC1(C)c2cc(C#N)ccc2OC1Cl` (stereo not given), 105 to 106 °C; under `CCOC(=O)c1ccc2n1Cc1ccccc1N1CCN(C)CC21` (stereo not given), 128 to 130 °C.
The result for `O=C(Nc1cccc(O)c1)C(=O)N1CCC(Cc2ccccc2)CC1` reads 158 to 160 °C; that for `COC(=O)c1ccccc1S(=O)(=O)NC(=O)n1nc(Oc2ccccc2)n(C)c1=O`, 161 °C; that for `Cc1nc2ccccc2n1-c1ccccc1`, 46 to 48 °C.
As for `CCCCCS(=O)(=O)NC(=O)c1ccc2sc(C)c(Cc3ccc(Cl)cc3Cl)c2c1`, the melting point lay within 158 to 159 °C.
Under `Cc1ccc(-n2c(-c3cc(-c4ccccc4)c(N4CCOCC4)s3)nc3ccccc3c2=O)cc1` stands 207 to 209 °C.
Under `CS(=O)(=O)c1ncc2cc(-c3ccccc3Cl)c(O)nc2n1` stands 215 to 221 °C; under `CC(C)CCNc1nc2ccccc2cc1[N+](=O)[O-]`, 99 to 100 °C.
`CCn1nc(Br)c([N+](=O)[O-])c1NCc1ccccc1` yielded a melting point of 92 °C.
The compound `CCN(CC)CCNc1ccc(CNC)c2sc3ccc(O)cc3c(=O)c12` returned a melting point of 167 to 169 °C.
On to `CC1Oc2c(cc(Cl)cc2C(=O)O)NC1=O` (stereo not given), for which the melting point is 319 to 320 °C.
The result for `CC1(C)OCCC(=O)c2ccccc2NC1=O` reads 146 to 148 °C; that for `Cc1cc(C(=O)O)cc(Cl)c1C1=NC(C)(C(C)C)C(=O)N1` (stereo not given), 245 to 248 °C; that for `CCCCCCCCCCCCCCCc1cc2cc(C(=O)OCC)ccc2[nH]1`, 89 to 91 °C.
Turning to `Cc1oc(-c2ccccc2)nc1COc1ccc(Cn2cc(C(=O)O)c(C(C)C)n2)cc1`, the melting point is 194 to 195 °C.
`CCOC(=O)CN(C)C(=O)c1ccsc1C(=O)c1ccc(F)cc1` yielded a melting point of 127 to 129 °C.
Compound `CCOCc1nc2c(N)nc3ccc(N4CCOC4=O)cc3c2n1CC(C)(C)O` came in with a melting point of 207 to 210 °C.
In turn, `CCCc1nc(N(C)c2ccccc2)n2ncc(C(O)c3ccccc3Cl)c2n1` (stereo not given) showed a melting point of 153 to 155 °C.
`CCCCCCC(=NO)C(=O)c1ccc(OC)c2ccccc12` came in with a melting point of 92 to 93 °C.
Take `CC#CCn1nnc2cc3c(=O)n(C(C)Cn4ncnn4)nnc3cc2c1=O` (stereo not given): the melting point was in the range of 132 to 134 °C.
As to `CC1CCc2c(Cl)c(N3CCOCC3)cc3c(=O)c(C(=O)O)cn1c23` (stereo not given), the melting point lay in the range of 271 to 274 °C.
Under `c1cc(C2CCCCC2)ccc1N=C1NCCCN1` stands 179 to 181 °C; under `FC(F)(F)c1cccc(-c2ccn3nccc3n2)c1`, 117 to 118 °C; under `O=Cc1ccc(O)c(NC(=O)CCl)c1`, 190 to 192 °C.
`COc1cc(N)c(Cl)cc1-c1nn(C2CCN(CC3CCCCC3)CC2)c(=O)o1`: the melting point lay in the range of 186 to 187 °C.
The result for `CCC(NC(=O)C(F)F)c1ccc(Cl)c2nc3n(c12)CCCN3c1c(Cl)cc(Cl)cc1Cl` (stereo not given) reads 211 to 213 °C; that for `COC(CNC(=O)c1ccc(N2CCN(C(=O)c3ccccc3C(F)(F)F)CC2)nn1)C(C)(C)C` (stereo not given), 65 to 68 °C.
With `Cc1ccc(-c2nc(C)cc(Cl)n2)cc1`, the melting point is 103 to 104 °C.
In turn, `CON=C1CN(c2cc3c(cc2F)c(=O)c(C(=O)O)cn3-c2ccc(F)cc2F)CC12CN(C(=O)OC(C)(C)C)C2` registered a melting point of 263 to 264 °C.
`c1cc(-n2cnnn2)ccc1SCN1CCOCC1` came in with a melting point of 118 to 121 °C.
`O=C(CC(=O)c1cccc(C(F)(F)F)c1NC(=O)C(F)F)Nc1nccs1`: the melting point is 206 °C.
Regarding `COC(=O)[C@]1(F)[C@H]2[C@H](O)CC(=O)[C@H]21`, the melting point lay in the range of 61 to 62 °C.
`Nc1nc2[nH]c(CCC#Cc3ccc(C(=O)N[C@@H](CCC(=O)O)C(=O)O)s3)cc2c(=O)[nH]1` registered a melting point of 196 to 197 °C.
Regarding `CCCCOc1cc(F)ccc1[N+](=O)[O-]`, the melting point fell in the range of 75 to 76 °C.
Consider `CC1(C)C(=NOCc2ccccc2)C(c2ccccc2)=C1c1ccc(S(C)(=O)=O)cc1`, for which the melting point was in the range of 119 to 121 °C.
In the case of `CC(C)(C)CNc1nc(C#N)nc2ccc(OCc3ccccn3)cc12`, the melting point was 160 °C.
The result for `CCOC(=O)C(Cc1ccc(NC(C)=O)c([N+](=O)[O-])c1)(NC(C)=O)C(=O)OCC` reads 172 °C.
Under `OCC(O)CSC(=S)Nc1ccccn1` (stereo not given) stands 98 °C; under `COc1ccc2[nH]c(-c3ccc(OC)c4nc(C(F)(F)F)ccc34)nc2c1`, 131 to 133 °C; under `Cc1[nH]c(=O)n(-c2cc(C(=O)OC(C)C)c(Cl)cc2F)c(=O)c1I`, 211 to 213 °C.
`Cc1cc(Nc2nccc(-c3sc(CO)nc3C)n2)ccc1N1CCCCC1`: the melting point fell in the range of 142 to 144 °C.
`CCC(C)(C)NC(Nc1cc(OC)cc(OC)c1)=C(C#N)S(=O)(=O)c1ccc(Cl)cc1` came in with a melting point of 189 to 190 °C.
The result for `CCCCCCCCCCC1(CCCCCCCCCC)c2cc(Br)ccc2-c2ccc(N(c3ccccc3)c3ccccc3)cc21` reads 66.8 to 69.2 °C; that for `C=CC1OC(OC)C(OCc2ccccc2)C(OCc2ccccc2)C1OCc1ccccc1` (stereo not given), 46 to 47 °C; that for `Nc1cc(OCC2CC2)c(C(=O)NC2CN3CCC2CC3)cc1Cl` (stereo not given), 183 to 185 °C.
For `Cc1ccc2c(c1)C(=O)N(C)CC(=O)N2`, the melting point is 243 to 244 °C.
The result for `CCc1nnc2c(O)nc3cc(F)ccc3n12` reads > 300 °C.
The result for `COc1ccc(N2CCN(Cc3n[nH]c4c3CCc3ccccc3-4)CC2)cc1` reads 207 to 208 °C; that for `CC(C(=O)c1ccc(OC2CCCCO2)cc1)c1ccccc1` (stereo not given), 94 to 96 °C.

As usually defined, the melting point is the temperature, or range, at which the solid turns liquid.
